Measurements reported in PMC5564600 (Oncotarget, 2017).
In brackets after ≈: the same amount, converted by molar mass.

Experiments:
[1] = target: PI3Kγ (Homo sapiens, UniProt P48736); test: PI3K (human) HTRF assay, PI3Kγ; type: biochemical; conditions: ATP 10 μM, mean ± SEM
[2] = Plasma pharmacokinetics of SN32976 and stable major metabolites in mice (30 mg/kg oral); conditions: mouse plasma, 30 mg/kg SN32976 oral gavage
[3] = target: mTOR (Homo sapiens, UniProt P42345); test: SelectScreen Z'LYTE kinase assay (Invitrogen), mTOR; type: biochemical; conditions: determined by Invitrogen, mean ± SEM, n=2
[4] = Metabolite identification in mouse liver microsomes; type: in vitro ADME; conditions: 10 μM SN32976, 60 min
Procedure: (§1) The reaction was quenched by mixing samples with acetonitrile and internal standard. […] Observation of parent compound and metabolites was achieved using electrospray ionization while performing a mass scan from 300-750 m/z. For observed peaks, the m/z was determined and product ion scans were carried out.

[5] = Metabolite identification in human liver microsomes; type: in vitro ADME; conditions: 10 μM SN32976, 60 min
Procedure: as §1

[6] = Metabolite identification in monkey liver microsomes; type: in vitro ADME, Cynomolgus monkey; conditions: 10 μM SN32976, 60 min
Procedure: as §1

[7] = Metabolite identification in rat liver microsomes; type: in vitro ADME; conditions: 10 μM SN32976, 60 min
Procedure: as §1

[8] = Metabolite identification in dog liver microsomes; type: in vitro ADME; conditions: 10 μM SN32976, 60 min
Procedure: as §1

[9] = target: PI3Kβ (Homo sapiens, UniProt P42338); test: PI3K (human) HTRF assay, PI3Kβ; type: biochemical; conditions: ATP 10 μM, mean ± SEM
[10] = target: PI3Kδ (Homo sapiens, UniProt O00329); test: PI3K (human) HTRF assay, PI3Kδ; type: biochemical; conditions: ATP 10 μM, mean ± SEM
[11] = target: PI3Kα (Homo sapiens, UniProt P42336); test: PI3K (human) HTRF assay, PI3Kα; type: biochemical
[12] = Tumor and plasma concentrations of SN32976 and major metabolites in mice with U-87 MG tumors after multiple doses; conditions: multiple doses of 100 mg/kg SN32976
[13] = Plasma pharmacokinetics in mice; conditions: male, CD1, mouse, po, 20 mg/kg
[14] = target: T1, PIK3C2G (Homo sapiens, UniProt O75747); test: KINOMEscan, PIK3C2G; type: binding; conditions: 10 μM
T1 construct: purchased Ambit Biosciences (scanMAXX KINOMEscan)
T1 sequence (O75747 1-1486): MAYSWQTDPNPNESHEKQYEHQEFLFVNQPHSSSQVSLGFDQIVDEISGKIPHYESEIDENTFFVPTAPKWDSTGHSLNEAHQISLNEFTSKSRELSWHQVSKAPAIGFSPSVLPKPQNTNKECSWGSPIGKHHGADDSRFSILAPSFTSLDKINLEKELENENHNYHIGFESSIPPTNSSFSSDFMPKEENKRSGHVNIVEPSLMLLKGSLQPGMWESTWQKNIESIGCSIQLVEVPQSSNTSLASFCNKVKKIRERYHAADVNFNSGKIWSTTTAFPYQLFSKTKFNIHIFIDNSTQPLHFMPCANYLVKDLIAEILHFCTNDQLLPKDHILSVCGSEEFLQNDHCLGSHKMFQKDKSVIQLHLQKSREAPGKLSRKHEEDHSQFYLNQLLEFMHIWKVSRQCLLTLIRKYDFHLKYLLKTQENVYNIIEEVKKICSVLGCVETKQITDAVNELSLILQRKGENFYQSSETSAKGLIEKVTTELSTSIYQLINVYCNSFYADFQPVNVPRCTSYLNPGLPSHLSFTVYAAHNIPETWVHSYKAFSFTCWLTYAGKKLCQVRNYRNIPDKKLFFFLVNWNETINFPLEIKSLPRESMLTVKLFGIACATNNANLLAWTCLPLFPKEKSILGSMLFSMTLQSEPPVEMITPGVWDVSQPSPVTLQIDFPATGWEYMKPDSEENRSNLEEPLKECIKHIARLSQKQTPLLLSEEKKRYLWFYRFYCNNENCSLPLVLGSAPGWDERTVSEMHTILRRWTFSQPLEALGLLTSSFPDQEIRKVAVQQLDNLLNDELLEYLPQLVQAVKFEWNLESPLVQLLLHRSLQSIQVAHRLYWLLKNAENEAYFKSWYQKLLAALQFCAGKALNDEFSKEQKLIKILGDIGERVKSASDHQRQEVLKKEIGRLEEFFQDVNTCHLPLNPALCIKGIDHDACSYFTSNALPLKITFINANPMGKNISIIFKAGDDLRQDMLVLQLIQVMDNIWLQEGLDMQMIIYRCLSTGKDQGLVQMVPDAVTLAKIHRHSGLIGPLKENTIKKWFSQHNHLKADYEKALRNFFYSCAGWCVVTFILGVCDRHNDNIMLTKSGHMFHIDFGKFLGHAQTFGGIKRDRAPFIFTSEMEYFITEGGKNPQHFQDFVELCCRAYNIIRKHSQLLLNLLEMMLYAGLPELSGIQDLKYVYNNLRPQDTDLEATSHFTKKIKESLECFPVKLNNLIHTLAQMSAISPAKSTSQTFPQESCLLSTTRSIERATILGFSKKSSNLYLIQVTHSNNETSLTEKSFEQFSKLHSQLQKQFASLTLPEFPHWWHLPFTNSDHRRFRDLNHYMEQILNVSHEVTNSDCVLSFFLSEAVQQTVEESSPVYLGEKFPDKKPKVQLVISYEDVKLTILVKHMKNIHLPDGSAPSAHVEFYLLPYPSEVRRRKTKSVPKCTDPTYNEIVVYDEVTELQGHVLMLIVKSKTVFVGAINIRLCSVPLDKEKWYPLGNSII

[15] = Plasma pharmacokinetics in dogs; conditions: male, Beagle, dog, po, 10 mg/kg
[16] = test system: CYP2B6; test: Cytochrome P450 induction in cultured hepatocytes (mRNA, qRT-PCR), CYP2B6; type: in vitro ADME; conditions: at 10 μM, hepatocytes 72 h, mean ± SD
[17] = target: T2, CYP2D6 (Homo sapiens, UniProt P10635); test: Cytochrome P450 inhibition in human liver microsomes, CYP2D6; type: in vitro ADME; conditions: read-out: CYP inhibition 2D6 IC50
T2 construct: was evaluated in human liver microsomes incubated with SN32976; tissue Cyprotex (contract research organization); host or cells: human liver microsomes

[18] = test system: CYP3A4; test: Cytochrome P450 induction in cultured hepatocytes (mRNA, qRT-PCR), CYP3A4; type: in vitro ADME; conditions: at 10 μM, hepatocytes 72 h, mean ± SD
[19] = target: T3, PIK3C2B (Homo sapiens, UniProt O00750); test: KINOMEscan, PIK3C2B; type: binding; conditions: 10 μM
T3 construct: purchased Ambit Biosciences (scanMAXX KINOMEscan)

[20] = test system: CYP1A2; test: Cytochrome P450 induction in cultured hepatocytes (mRNA, qRT-PCR), CYP1A2; type: in vitro ADME; conditions: at 10 μM, hepatocytes 72 h, mean ± SD
[21] = Rat dose proportionality study (oral); conditions: male, Sprague-Dawley, plasma
[22] = Solubility in potassium phosphate buffer; type: physicochemical; conditions: aqueous buffer, thermodynamic from solid
[23] = Plasma pharmacokinetics in rats; conditions: male, Sprague-Dawley, rat, po, 10 mg/kg
[24] = target: T4, CYP2C19 (Homo sapiens, UniProt P33261); test: Cytochrome P450 inhibition in human liver microsomes, CYP2C19; type: in vitro ADME; conditions: read-out: CYP inhibition 2C19 IC50
T4 construct: was evaluated in human liver microsomes incubated with SN32976; tissue Cyprotex (contract research organization); host or cells: human liver microsomes

[25] = target: T5, CYP1A2 (Homo sapiens, UniProt P05177); test: Cytochrome P450 inhibition in human liver microsomes, CYP1A2; type: in vitro ADME; conditions: read-out: CYP inhibition 1A2 IC50
T5 construct: was evaluated in human liver microsomes incubated with SN32976; tissue Cyprotex (contract research organization); host or cells: human liver microsomes

[26] = target: T6, CYP3A4 (Homo sapiens, UniProt P08684); test: Cytochrome P450 inhibition in human liver microsomes, CYP3A4; type: in vitro ADME; conditions: read-out: CYP inhibition 3A4 IC50
T6 construct: was evaluated in human liver microsomes incubated with SN32976; tissue Cyprotex (contract research organization); host or cells: human liver microsomes

[27] = target: T7, CYP2C9 (Homo sapiens, UniProt P11712); test: Cytochrome P450 inhibition in human liver microsomes, CYP2C9; type: in vitro ADME; conditions: mean ± SD, read-out: CYP inhibition 2C9 IC50
T7 construct: was evaluated in human liver microsomes incubated with SN32976; tissue Cyprotex (contract research organization); host or cells: human liver microsomes

[28] = test system: PI3Kα; parameters: method as in PMID 23726034, PMID 23275335; conditions: cited from earlier work

Sequence of PI3Kγ (P48736 whole entry): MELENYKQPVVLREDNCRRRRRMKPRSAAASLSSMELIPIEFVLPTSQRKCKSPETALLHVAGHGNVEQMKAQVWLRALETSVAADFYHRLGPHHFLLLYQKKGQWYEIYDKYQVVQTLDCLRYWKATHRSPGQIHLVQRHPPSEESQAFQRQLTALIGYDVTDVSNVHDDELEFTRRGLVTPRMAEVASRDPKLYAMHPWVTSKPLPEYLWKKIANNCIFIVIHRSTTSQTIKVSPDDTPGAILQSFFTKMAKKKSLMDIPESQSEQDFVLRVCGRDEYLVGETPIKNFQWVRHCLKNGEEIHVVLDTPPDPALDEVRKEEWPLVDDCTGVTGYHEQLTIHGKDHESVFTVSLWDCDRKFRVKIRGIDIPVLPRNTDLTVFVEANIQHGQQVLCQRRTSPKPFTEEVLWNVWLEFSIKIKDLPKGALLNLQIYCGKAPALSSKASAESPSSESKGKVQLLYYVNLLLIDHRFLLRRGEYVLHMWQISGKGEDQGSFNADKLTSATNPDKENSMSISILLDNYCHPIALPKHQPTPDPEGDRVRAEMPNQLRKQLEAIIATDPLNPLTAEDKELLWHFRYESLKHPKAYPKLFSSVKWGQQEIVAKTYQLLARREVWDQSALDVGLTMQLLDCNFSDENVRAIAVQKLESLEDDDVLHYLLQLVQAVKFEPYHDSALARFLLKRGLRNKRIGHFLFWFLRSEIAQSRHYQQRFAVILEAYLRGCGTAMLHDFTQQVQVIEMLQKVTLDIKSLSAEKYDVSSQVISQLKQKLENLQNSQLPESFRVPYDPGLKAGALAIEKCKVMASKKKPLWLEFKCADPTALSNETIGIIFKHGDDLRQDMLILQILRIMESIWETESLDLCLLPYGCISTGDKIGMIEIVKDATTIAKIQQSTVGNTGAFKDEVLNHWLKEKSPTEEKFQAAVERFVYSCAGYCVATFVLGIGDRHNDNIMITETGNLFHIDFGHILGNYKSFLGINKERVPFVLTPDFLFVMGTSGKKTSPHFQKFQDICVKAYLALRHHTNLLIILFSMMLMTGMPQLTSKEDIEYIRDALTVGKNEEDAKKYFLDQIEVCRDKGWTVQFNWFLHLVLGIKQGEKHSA
Sequence of PI3Kβ (P42338 whole entry): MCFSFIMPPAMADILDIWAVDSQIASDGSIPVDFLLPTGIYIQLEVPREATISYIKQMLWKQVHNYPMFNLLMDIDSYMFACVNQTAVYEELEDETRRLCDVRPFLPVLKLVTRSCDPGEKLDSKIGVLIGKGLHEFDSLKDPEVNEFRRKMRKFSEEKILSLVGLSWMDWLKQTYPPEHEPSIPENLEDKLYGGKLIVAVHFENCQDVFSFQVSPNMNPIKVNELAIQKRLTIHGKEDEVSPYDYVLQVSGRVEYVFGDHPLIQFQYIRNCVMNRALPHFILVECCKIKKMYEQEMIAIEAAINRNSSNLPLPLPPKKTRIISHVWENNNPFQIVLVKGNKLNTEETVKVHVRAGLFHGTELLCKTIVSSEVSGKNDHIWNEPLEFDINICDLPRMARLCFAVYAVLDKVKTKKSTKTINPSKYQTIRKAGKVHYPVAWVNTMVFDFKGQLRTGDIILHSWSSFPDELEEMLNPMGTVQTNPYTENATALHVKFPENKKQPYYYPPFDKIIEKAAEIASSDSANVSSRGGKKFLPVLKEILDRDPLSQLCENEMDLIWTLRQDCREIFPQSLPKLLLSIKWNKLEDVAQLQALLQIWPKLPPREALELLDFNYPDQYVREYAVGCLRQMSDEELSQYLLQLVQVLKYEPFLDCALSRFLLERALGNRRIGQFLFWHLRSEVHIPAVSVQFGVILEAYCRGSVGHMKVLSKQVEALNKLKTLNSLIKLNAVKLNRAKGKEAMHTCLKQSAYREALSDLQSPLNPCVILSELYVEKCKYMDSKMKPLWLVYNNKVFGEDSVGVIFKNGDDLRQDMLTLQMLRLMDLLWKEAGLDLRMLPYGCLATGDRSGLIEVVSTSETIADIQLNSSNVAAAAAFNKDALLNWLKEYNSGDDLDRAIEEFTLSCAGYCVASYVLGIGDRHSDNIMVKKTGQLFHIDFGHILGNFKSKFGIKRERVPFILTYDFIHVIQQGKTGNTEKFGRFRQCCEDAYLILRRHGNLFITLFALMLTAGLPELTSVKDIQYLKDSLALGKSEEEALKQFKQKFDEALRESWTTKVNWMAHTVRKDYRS
Sequence of PI3Kβ (P27986 whole entry partner): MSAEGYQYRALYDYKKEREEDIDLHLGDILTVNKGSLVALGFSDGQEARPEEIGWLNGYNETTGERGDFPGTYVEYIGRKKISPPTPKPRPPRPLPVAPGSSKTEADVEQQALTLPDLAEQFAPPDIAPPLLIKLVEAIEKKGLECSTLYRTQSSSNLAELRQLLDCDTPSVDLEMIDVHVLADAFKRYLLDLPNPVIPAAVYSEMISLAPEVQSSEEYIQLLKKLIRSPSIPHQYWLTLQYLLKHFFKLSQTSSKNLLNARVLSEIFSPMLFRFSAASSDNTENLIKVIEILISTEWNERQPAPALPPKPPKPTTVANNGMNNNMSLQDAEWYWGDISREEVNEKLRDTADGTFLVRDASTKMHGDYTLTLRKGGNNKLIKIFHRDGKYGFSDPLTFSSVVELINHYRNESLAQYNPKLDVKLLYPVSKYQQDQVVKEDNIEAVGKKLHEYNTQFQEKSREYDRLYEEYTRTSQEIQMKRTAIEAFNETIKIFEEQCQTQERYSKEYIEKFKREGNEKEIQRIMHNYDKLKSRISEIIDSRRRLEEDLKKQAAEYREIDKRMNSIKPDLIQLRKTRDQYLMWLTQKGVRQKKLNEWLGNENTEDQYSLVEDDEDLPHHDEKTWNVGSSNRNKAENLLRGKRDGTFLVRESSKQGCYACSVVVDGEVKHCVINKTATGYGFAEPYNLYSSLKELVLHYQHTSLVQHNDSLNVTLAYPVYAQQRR
Sequence of PI3Kα (Homo sapiens, UniProt P42336) (P42336 whole entry): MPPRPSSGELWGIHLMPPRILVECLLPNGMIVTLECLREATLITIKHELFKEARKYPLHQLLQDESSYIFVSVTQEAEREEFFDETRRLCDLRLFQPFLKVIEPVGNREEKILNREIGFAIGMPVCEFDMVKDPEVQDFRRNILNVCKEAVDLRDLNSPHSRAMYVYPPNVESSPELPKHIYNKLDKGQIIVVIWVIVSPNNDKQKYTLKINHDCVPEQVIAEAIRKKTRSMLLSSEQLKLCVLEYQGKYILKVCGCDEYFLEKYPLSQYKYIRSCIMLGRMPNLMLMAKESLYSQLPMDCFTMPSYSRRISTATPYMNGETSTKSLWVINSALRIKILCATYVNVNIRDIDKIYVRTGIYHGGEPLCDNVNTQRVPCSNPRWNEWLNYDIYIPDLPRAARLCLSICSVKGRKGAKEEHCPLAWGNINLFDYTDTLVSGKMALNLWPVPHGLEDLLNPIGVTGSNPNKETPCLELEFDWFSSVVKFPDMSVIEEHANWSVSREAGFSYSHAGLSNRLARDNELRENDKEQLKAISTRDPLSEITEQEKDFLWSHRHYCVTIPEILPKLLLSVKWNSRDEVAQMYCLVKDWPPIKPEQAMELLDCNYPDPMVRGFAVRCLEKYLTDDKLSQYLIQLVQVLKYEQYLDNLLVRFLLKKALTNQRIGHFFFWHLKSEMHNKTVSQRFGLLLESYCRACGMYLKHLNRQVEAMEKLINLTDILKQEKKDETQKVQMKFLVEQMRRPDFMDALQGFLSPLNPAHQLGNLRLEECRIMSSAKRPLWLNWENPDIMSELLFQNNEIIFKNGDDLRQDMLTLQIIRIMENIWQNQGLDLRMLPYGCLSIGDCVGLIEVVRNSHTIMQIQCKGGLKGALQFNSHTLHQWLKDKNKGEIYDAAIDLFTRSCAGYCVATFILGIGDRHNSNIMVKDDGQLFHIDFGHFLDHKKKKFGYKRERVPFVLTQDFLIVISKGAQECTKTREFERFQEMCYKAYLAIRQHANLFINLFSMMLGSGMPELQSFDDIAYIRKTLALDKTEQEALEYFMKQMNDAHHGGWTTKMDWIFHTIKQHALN
Sequence of PI3Kα (Homo sapiens, UniProt P42336) (P27986 whole entry partner): as the sequence (P27986 whole entry partner) above
T2 sequence (P10635 whole entry): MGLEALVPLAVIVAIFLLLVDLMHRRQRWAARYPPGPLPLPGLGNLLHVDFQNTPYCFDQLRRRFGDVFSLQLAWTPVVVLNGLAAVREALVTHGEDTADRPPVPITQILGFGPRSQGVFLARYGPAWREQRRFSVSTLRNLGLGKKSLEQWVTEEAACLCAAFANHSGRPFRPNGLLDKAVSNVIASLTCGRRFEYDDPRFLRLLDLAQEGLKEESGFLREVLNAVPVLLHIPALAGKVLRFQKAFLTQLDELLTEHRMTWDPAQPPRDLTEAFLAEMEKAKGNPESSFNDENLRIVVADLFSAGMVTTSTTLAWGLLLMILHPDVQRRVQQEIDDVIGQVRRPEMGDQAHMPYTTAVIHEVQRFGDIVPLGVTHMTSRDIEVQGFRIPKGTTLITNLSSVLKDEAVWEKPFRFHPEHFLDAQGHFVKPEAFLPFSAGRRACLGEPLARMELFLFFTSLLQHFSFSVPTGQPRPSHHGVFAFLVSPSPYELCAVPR
T4 sequence (P33261 whole entry): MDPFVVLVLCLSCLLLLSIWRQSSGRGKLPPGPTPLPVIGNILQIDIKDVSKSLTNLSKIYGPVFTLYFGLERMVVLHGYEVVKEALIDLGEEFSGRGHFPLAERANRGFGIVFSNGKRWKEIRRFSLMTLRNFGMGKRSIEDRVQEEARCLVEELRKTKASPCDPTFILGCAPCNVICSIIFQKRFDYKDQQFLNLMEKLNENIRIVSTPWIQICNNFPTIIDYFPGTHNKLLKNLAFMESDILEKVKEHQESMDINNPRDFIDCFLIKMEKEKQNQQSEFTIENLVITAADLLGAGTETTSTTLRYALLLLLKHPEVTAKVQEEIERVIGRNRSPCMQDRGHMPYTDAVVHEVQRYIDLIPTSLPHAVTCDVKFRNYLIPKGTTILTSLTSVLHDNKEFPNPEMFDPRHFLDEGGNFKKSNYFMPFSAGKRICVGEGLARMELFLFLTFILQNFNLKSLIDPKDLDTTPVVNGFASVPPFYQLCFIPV

COc1cccc2c1nc(C(F)F)n2-c1nc(N2CCOCC2)nc(N2CCN(S(=O)(=O)CCN)CC2)n1 [M8]
IC50 [1]: 68 ± 18.6 nM
contribution to combined plasma AUC [2]: 0.13%

CNCCS(=O)(=O)N1CCN(c2nc(N3CCOCC3)nc(-n3c(C(F)F)nc4c(OC)cccc43)n2)CC1 [M9]
IC50 [1]: 90.3 ± 17.1 nM
contribution to combined plasma AUC [2]: 27.1%
IC50 [3]: 244 ± 56 nM

COc1cccc2c1nc(C(F)F)n2-c1nc(N2CCOCC2)nc(N2CCN(S(=O)(=O)CC[N+](C)(C)[O-])CC2)n1 [M10]
metabolite quantity in liver microsomes (relative peak area class) [4]: major (major (>10% relative peak areas))
metabolite quantity in liver microsomes (relative peak area class) [5]: trace (trace (<1% relative peak areas in the total ion chromatograph))
metabolite quantity in liver microsomes (relative peak area class) [6]: minor (minor (1-10% relative peak areas))
metabolite quantity in liver microsomes (relative peak area class) [7]: major (major (>10% relative peak areas))
metabolite quantity in liver microsomes (relative peak area class) [8]: minor (minor (1-10% relative peak areas))

C=CS(=O)(=O)N1CCN(c2nc(N3CCOCC3)nc(-n3c(C(F)F)nc4c(OC)cccc43)n2)CC1 [M17]
metabolite quantity in liver microsomes (relative peak area class) [4]: major (major (>10% relative peak areas))
metabolite quantity in liver microsomes (relative peak area class) [5]: major (major (>10% relative peak areas))
IC50 [9]: > 1000 nM
IC50 PI3Kβ [9]: lacked activity
IC50 [10]: 55 ± 24.1 nM
IC50 ([11]; HTRF assay, ATP 10 μM, mean ± SEM): 6.2 ± 0.5 nM
selectivity for PI3Kα over all other PI3K isoforms and mTOR ([11]; ratio of biochemical IC50): 4.2 fold
metabolite quantity in liver microsomes (relative peak area class) [6]: major (major (>10% relative peak areas))
metabolite AUC relative to parent in plasma [12]: 8.8 % of parent
metabolite AUC relative to parent in tumor [12]: 2.4 % of parent
metabolite quantity in liver microsomes (relative peak area class) [7]: major (major (>10% relative peak areas))
IC50 [1]: 26.3 ± 2.6 nM
metabolite quantity in liver microsomes (relative peak area class) [8]: major (major (>10% relative peak areas))
contribution to combined plasma AUC [2]: 1.0%
IC50 [3]: 74.9 ± 25.1 nM

COc1cccc2c1nc(C(F)F)n2-c1nc(N2CCOCC2)nc(N2CCN(S(=O)(=O)CCN(C)C)CC2)n1 [SN32976, 2-((4-(4-(2-(difluoromethyl)-4-methoxy-1H-benzo[d]imidazol-1-yl)-6-morpholino-1,3,5-triazin-2-yl)piperazin-1-yl)sulfonyl)-N, N-dimethylethan-1-amine]
AUC [13]: 2.5 µM·h
bioavailability [13]: 33.4%
off-target activity against PIK3C2G [14]: off-target activity
AUC [15]: 3.22 µM·h
bioavailability [15]: 35.9%
CYP induction 2B6 [16]: 0.31 ± 0.01
IC50 [17]: > 25000 nM
CYP induction 3A4 [18]: 1.39 ± 0.21
off-target activity against PIK3C2B [19]: off-target activity
CYP induction 1A2 [20]: 1.27 ± 0.01
AUC ([21]; 10 mg/kg): 0.417 µM·h
Cmax ([21]; 10 mg/kg): 34.1 nM
Tmax ([21]; 10 mg/kg): 4 h
half-life ([21]; 10 mg/kg): 2.27 h
AUC ([21]; 30 mg/kg): 1.07 µM·h
Cmax ([21]; 30 mg/kg): 125 nM
Tmax ([21]; 30 mg/kg): 1 h
half-life ([21]; 30 mg/kg): 4.62 h
AUC ([21]; 100 mg/kg): 16.4 µM·h
Cmax ([21]; 100 mg/kg): 893 nM
Tmax ([21]; 100 mg/kg): 1 h
half-life ([21]; 100 mg/kg): 9.77 h
AUC ([21]; 300 mg/kg): 139 µM·h
Cmax ([21]; 300 mg/kg): 6810 nM
Tmax ([21]; 300 mg/kg): 4 h
solubility ([22]; pH 2.0): > 100000 µM
solubility ([22]; pH 7.4, mean ± SD): 11.2 µM (≈ 6.51 µg/mL)
AUC [23]: 0.579 µM·h
bioavailability [23]: 8.1%
IC50 [24]: > 25000 nM
IC50 [25]: > 25000 nM
IC50 [26]: > 25000 nM
IC50 [1]: 110 ± 41 nM
IC50 [27]: 20000 nM
contribution to combined plasma AUC [2]: 71.8%
IC50 [3]: 194 ± 55 nM

Cc1nc(NC(=O)N2CCC[C@H]2C(N)=O)sc1-c1ccnc(C(C)(C)C(F)(F)F)c1 [alpelisib]
selectivity for PI3Kα over other class I PI3K isoforms and mTOR [28]: > 50 fold

Nc1nc2cc(-c3ccc4ncc(C(=O)N5CCOCC5)n4c3)ccc2o1 [serabelisib]
selectivity for PI3Kα over other class I PI3K isoforms and mTOR [28]: > 50 fold
